# System: SK-OV-3 cell line
# Assay: 5-aza-2′-deoxycytidine treatment of SK-OV-3 cell line, gene expression changes by qRT-PCR
# Format: cell-based, human
# Protocol: Human ovarian cancer cell line SK-OV-3 was purchased from American type culture collection (ATCC no. HTB-77) and cultured in a McCoy's 5a medium containing 10% FBS (fetal bovine serum), 100 U/mL penicillin and 100 μg/mL streptomycin.
# Total RNAs were extracted from SK-OV-3 cell line and the tumor tissues using an RNeasy mini kit (Qiagen), respectively. The extraction was performed according to manufacturer's instructions. The extracted total RNAs were quantified using a spectrophotometer, and RNA degradation was examined by electrophoresis in a 1% agarose gel.
# For cDNA synthesis, Superscript II reverse transcriptase (Invitrogen) was used. 1 μg of total RNA and 50 ng of oligo dT were denatured at 70° C. for 10 minutes, and then mixed with a reaction mixture containing 4 μl of 5×RT buffer, 2 μl of […], 4 μl of 2.5 mM dNTP mixture, 200 units of Superscript II reverse transcriptase and 10 units of RNase inhibitor to prepare 20 μl of the resulting reaction mixture, which was reacted at 25° C. for 10 minutes, at 42° C. for 50 minutes, and at 95° C. for 5 minutes to synthesize cDNA. This cDNA was diluted at 1:4, and 2 μl thereof was used as a template for qRT-PCR. In qRT-PCR, 20 μl of reaction mixture containing 2 μl of cDNA, 10 μl of SYBR Premix EX Taq (Takara Bio), 0.4 μl of Rox reference dye (50×, Takara Bio), and 200 nM of primers of each gene was reacted at 95° C. for 30 seconds, and then repeated for 40 cycles (at 95° C. for 3 seconds, and at 60° C. for 30 seconds) using an ABI 7500fast sequence detection system (Applied Biosystems) for amplification. The PCR products were reacted at 95° C. for 15 seconds, at 60° C. for 1 minute, and at 95° C. for 15 seconds to examine their specificity. 18S rRNA expression was used as an internal control, and expressions of AGR2, CA9, GABRP, IFITM1 and MUC13 genes were normalization using the 18S rRNA expression level by a ΔΔCT method. The sequences of the primers used are as follows.
# SK-OV-3 cell line was treated with a methylation inhibitor, 5-aza-2′-deoxycytidine (Sigma-Aldrich) at concentrations of 5 and 10 μM for 3 days, and then changes in AGR2, CA9, GABRP, IFITM1, and MUC13 gene expressions were measured by qRT-PCP.
# [1] = SK-OV-3 cells treated at 5 and 10 μM for 3 days, qRT-PCR normalized to 18S rRNA
smiles,measurement,setting,value
Nc1ncn([C@H]2C[C@H](O)[C@@H](CO)O2)c(=O)n1 [5-aza-2′-deoxycytidine],increase in AGR2 gene expression,[1],about 2 fold
same,increase in CA9 gene expression,[1],about 3.4 fold
same,increase in GABRP gene expression,[1],about 1.8 fold
same,increase in IFITM1 gene expression,[1],about 1.7 fold
same,increase in MUC13 gene expression,[1],17.8 fold
same,"changes in expressions of the five genes (AGR2, CA9, GABRP, IFITM1, and MUC13)","SK-OV-3 cells, treatment for 3 days, result in words",increased expressions of the above genes were observed

# Reference: patent US20140243218A1, “COMPOSITION FOR DIAGNOSING OVARIAN CANCER METASTASIS USING CPG METHYLATION STATUS OF GENE PROMOTER AND USE THEREOF” (Ewha University - Industry Collaboration Foundation, priority 2013, published 2014)
